Reference: patent US8461209B2, “Malonic acid sulfonamide derivative and pharmaceutical use thereof” (Mitsubishi Tanabe Pharma Corporation, priority 2007, dated 2013)
pKi: −log10 of the molar value.

Each molecule was assayed against T1, human recombinant AT2 receptor (Homo sapiens, UniProt P50052) (assay: Affinity for AT2 receptor (receptor binding assay)). Conditions: membrane fraction from HeLa cells expressing human recombinant AT2 receptor; 125I-[Sar1, Ile8]-Ang II 0.1 nmol/L.
T1 construct: purchased PerkinElmer 6110538; host or cells: HeLa cells
T1 sequence (P50052 1-363): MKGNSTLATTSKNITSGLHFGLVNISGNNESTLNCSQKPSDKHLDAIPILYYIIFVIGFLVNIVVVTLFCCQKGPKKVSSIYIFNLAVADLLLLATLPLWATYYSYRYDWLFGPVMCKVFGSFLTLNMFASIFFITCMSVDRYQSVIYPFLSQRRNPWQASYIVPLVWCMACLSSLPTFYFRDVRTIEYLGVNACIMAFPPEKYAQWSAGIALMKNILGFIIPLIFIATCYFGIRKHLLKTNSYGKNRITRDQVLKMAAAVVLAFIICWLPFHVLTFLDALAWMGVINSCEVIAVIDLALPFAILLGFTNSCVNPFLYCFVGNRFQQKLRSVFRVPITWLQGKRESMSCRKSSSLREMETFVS
Procedure: Using a commercially available receptor membrane fraction (PerkinElmer, Cat No. 6110538) obtained from HeLa cells expressing human recombinant AT2 receptor, a receptor binding assay was performed. ^125I-[Sar^1, Ile^8]-Ang II (0.8 kBq, final concentration 0.1 nmol/L) and various concentrations of the compound of the present invention were added to a solution of 50 mmol/L Tris-HCl (pH 7.4), 125 mmol/L NaCl, 6.5 mmol/L MgCl2 and 1 mmol/L EDTA containing the receptor membrane fraction, and the mixture was incubated at room temperature for 90 min. Bound or free ^125I-[Sar^1, Ile^8]-Ang II was separated with a glass fiber filter (Millipore, MultiScreen FB Plate), and the radioactivity of ^125I-[Sar^1, Ile^8]-Ang II bound to the receptor was determined. […] On the other hand, Kd value of ^125I-[Sar^i, Ile^8]-Ang II for AT2 receptor in the absence of the compound of the present invention was determined by Scatchard analysis. Using the IC50 value obtained from the concentration-response curve and the Kd value of ^125I-[Sar^1, Ile^8]-Ang II, the Ki value of the compound of the present invention was calculated and used as an index of the affinity for AT2 receptor.

First: CC(C)CC(C(=O)NS(=O)(=O)CCc1ccccc1)C(=O)N(c1ccc(F)cc1)C(C)C (stereo not shown) [Example 493, N-(4-fluorophenyl)-2-isobutyl-N-isopropyl-N′-phenethylsulfonylmalonamide]
Second: CC(C)CC(C(=O)NS(=O)(=O)CCCOc1ccccc1)C(=O)N(c1ccc(F)cc1)C(C)C (stereo not shown) [Example 496, N-(4-fluorophenyl)-2-isobutyl-N-isopropyl-N′-(3-phenoxypropylsulfonyl)malonamide]
The pKi of the first is 0.36 log units higher: 8.28 for the first, 7.92 for the second. The first binds more tightly here.

`CC(C)N(C(=O)C(Cc1ccc(F)cc1)C(=O)NS(=O)(=O)/C=C/c1ccccc1)c1cccnc1` (stereo not shown) [Example 322, 2-(4-fluorobenzyl)-N-isopropyl-N-(3-pyridyl)-N′-((E)-styrylsulfonyl)malonamide] and `C=CCC(C(=O)NS(=O)(=O)/C=C/c1ccccc1)C(=O)N(c1ccc(F)cc1)C(C)C` (stereo not shown) [Example 481, 2-allyl-N-(4-fluorophenyl)-N-isopropyl-N′-((E)-styrylsulfonyl)malonamide] are within 0.2 log units of each other in pKi: 8.19 for the first, 8.05 for the second.

First: CCN(CC)C(=O)[C@H](Cc1ccc(NC(=O)c2c(N)cccc2F)cc1)C(=O)NS(=O)(=O)c1ccc2ccccc2c1 [Example 100, (2S)-2-{4-[(2-amino-6-fluorobenzoyl)amino]benzyl}-N,N-diethyl-N′-(2-naphthylsulfonyl)malonamide]
Second: CCN(CC)C(=O)C(Cc1ccc(NC(=O)c2c(F)cccc2F)cc1)C(=O)NS(=O)(=O)c1ccc2ccccc2c1 (stereo not shown) [Example 22, N,N-diethyl-2-{4-[(2,6-difluorobenzoyl)amino]benzyl}-N′-(2-naphthylsulfonyl)malonamide]
The pKi of the first is 0.64 log units higher: 8.74 for the first, 8.10 for the second. The first binds more tightly here.

First: C=CCC(C(=O)NS(=O)(=O)/C=C/c1ccccc1)C(=O)N(CC)c1cccc(C(F)(F)F)c1 (stereo not shown) [Example 475, 2-allyl-N-ethyl-N′-((E)-styrylsulfonyl)-N-(3-trifluoromethylphenyl)malonamide]
Second: CC(C)N(C(=O)C(CC1CC1)C(=O)NS(=O)(=O)/C=C/c1ccccc1)c1ccc(F)cc1 (single isomer, unassigned) [Example 516, (2S or 2R)-2-cyclopropylmethyl-N-(4-fluorophenyl)-N-isopropyl-N′-((E)-2-styrylsulfonyl)malonamide]
The pKi of the first is 0.32 log units lower: 7.89 for the first, 8.21 for the second.

`CCN(C(=O)C(CC(=O)N1CCc2ccccc2C1)C(=O)NS(=O)(=O)/C=C/c1ccccc1)c1ccccc1` (stereo not shown) [Example 441, 2-[2-(3,4-dihydroisoquinolin-2(1H)-yl)-2-oxoethyl]-N-ethyl-N-phenyl-N′-((E)-styrylsulfonyl)malonamide] and `CCN(C(=O)C(Cc1cnn(Cc2ccccc2)c1)C(=O)NS(=O)(=O)/C=C/c1ccccc1)c1ccccc1` (stereo not shown) [Example 371, 2-[(1-benzyl-1H-pyrazol-4-yl)methyl]-N-ethyl-N-phenyl-N′-((E)-styrylsulfonyl)malonamide] are within 0.2 log units of each other in pKi: 7.96 for the first, 7.92 for the second.

Compared with `CCN(CC)C(=O)[C@H](Cc1ccc(NC(=O)c2cc(Cl)ccc2N)cc1)C(=O)NS(=O)(=O)c1ccc2ccccc2c1` [Example 105, (2S)-2-{4-[(2-amino-5-chlorobenzoyl)amino]benzyl}-N,N-diethyl-N′-(2-naphthylsulfonyl)malonamide], `CCN(CC)C(=O)[C@H](Cc1ccc(NC(=O)c2ccc(Cl)cc2N)cc1)C(=O)NS(=O)(=O)c1ccc2ccccc2c1` [Example 103, (2S)-2-{4-[(2-amino-4-chlorobenzoyl)amino]benzyl}-N,N-diethyl-N′-(2-naphthylsulfonyl)malonamide] is 0.22 log units higher in pKi: 8.27 for the first, 8.49 for the second. The second binds more tightly here.

First: CCN(CC)C(=O)[C@H](Cc1ccc(NC(=O)c2ccccc2)cc1)C(=O)NS(=O)(=O)c1ccc2ccccc2c1 [Example 92, (2S)-2-[4-(benzoylamino)benzyl]-N,N-diethyl-N′-(2-naphthylsulfonyl)malonamide]
Second: CCN(CC)C(=O)C(Cc1ccc(NC(=O)Oc2ccccc2)cc1)C(=O)NS(=O)(=O)c1ccc2ccccc2c1 (stereo not shown) [Example 87, N,N-diethyl-N′-(2-naphthylsulfonyl)-2-[4-(phenoxycarbonylamino)benzyl]malonamide]
The pKi of the first is 1.00 log units higher: 8.64 for the first, 7.64 for the second.

First: CCN(CC)C(=O)[C@H](Cc1ccc(NC(=O)c2ccc(F)cc2N)cc1)C(=O)NS(=O)(=O)c1ccc2ccccc2c1 [Example 107, (2S)-2-{4-[(2-amino-4-fluorobenzoyl)amino]benzyl}-N,N-diethyl-N′-(2-naphthylsulfonyl)malonamide]
Second: CCN(CC)C(=O)[C@H](Cc1ccc(NC(=O)c2cc(F)ccc2N)cc1)C(=O)NS(=O)(=O)c1ccc2ccccc2c1 [Example 99, (2S)-2-{4-[(2-amino-5-fluorobenzoyl)amino]benzyl}-N,N-diethyl-N′-(2-naphthylsulfonyl)malonamide]
The pKi of the first is 0.25 log units lower: 8.80 for the first, 9.05 for the second. The second binds more tightly here.

`CC(C)N(C(=O)C(CC1CC1)C(=O)NS(=O)(=O)c1ccc2ccccc2c1)c1ccc(F)cc1` (stereo not shown) [Example 530, 2-cyclopropylmethyl-N-(4-fluorophenyl)-N-isopropyl-N′-(2-naphthylsulfonyl)malonamide] and `CC(C)CC(C(=O)NS(=O)(=O)c1ccc2ccccc2c1)C(=O)N(c1ccc(F)cc1)C(C)C` (stereo not shown) [Example 495, N-(4-fluorophenyl)-2-isobutyl-N-isopropyl-N′-(2-naphthylsulfonyl)malonamide] are within 0.2 log units of each other in pKi: 7.89 for the first, 8.08 for the second.

Compared with `CCN(CC)C(=O)[C@H](Cc1ccc(NC(=O)c2cc(F)c(F)cc2N)cc1)C(=O)NS(=O)(=O)c1ccc2ccccc2c1` [Example 106, (2S)-2-{4-[(2-amino-4,5-difluorobenzoyl)amino]benzyl}-N,N-diethyl-N′-(2-naphthylsulfonyl)malonamide], `CCN(CC)C(=O)[C@H](Cc1ccc(NC(=O)c2cc(C)ccc2N)cc1)C(=O)NS(=O)(=O)c1ccc2ccccc2c1` [Example 108, (2S)-2-{4-[(2-amino-5-methylbenzoyl)amino]benzyl}-N,N-diethyl-N′-(2-naphthylsulfonyl)malonamide] is 0.79 log units lower in pKi: 8.80 for the first, 8.01 for the second.

`CC(C)N(C(=O)C(CC1CC1)C(=O)NS(=O)(=O)CCc1ccccc1)c1ccc(F)cc1` (stereo not shown) [Example 529, 2-cyclopropylmethyl-N-(4-fluorophenyl)-N-isopropyl-N′-phenethylsulfonylmalonamide] and `CC(C)CC(C(=O)NS(=O)(=O)/C=C/c1ccccc1)C(=O)N(c1ccc(F)cc1)C(C)C` (stereo not shown) [Example 491, N-(4-fluorophenyl)-2-isobutyl-N-isopropyl-N′-((E)-styrylsulfonyl)malonamide] are within 0.2 log units of each other in pKi: 8.00 for the first, 8.04 for the second.

First: CCN(CC)C(=O)C(CCCc1ccc(N)cc1)C(=O)NS(=O)(=O)c1ccc2ccccc2c1 (stereo not shown) [Example 147, 2-[3-(4-aminophenyl)propyl]-N,N-diethyl-N′-(2-naphthylsulfonyl)malonamide]
Second: CCN(CC)C(=O)[C@H](Cc1ccc(NC(=O)c2ccccc2N)cc1)C(=O)NS(=O)(=O)c1ccc2ccccc2c1 [Example 104, (2S)-2-{4-[(2-aminobenzoyl)amino]benzyl}-N,N-diethyl-N′-(2-naphthylsulfonyl)malonamide]
The pKi of the first is 1.01 log units lower: 7.47 for the first, 8.48 for the second.

Molecule `CCN(CC)C(=O)[C@H](Cc1ccc(NC(=O)c2ccccn2)cc1)C(=O)NS(=O)(=O)c1ccc2ccccc2c1` [Example 101, (2S)—N,N-diethyl-N′-(2-naphthylsulfonyl)-2-{4-[(2-pyridylcarbonyl)amino]benzyl}malonamide] has a pKi of 7.80.
